# Measurements published in PubChem BioAssay (NCI).
#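 Cultured in 96-well plates, cells were exposed to test compound for 48 hours across five concentrations. GI50 marks 50% less growth. TGI: concentration producing complete growth inhibition.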 Where a SMILES comes first, the peptide text is derived from it. The star is where a group is joined. Boc = CC(C)(C)OC(=O)*
# Tests used:
# Assay in all cases: NCI tumour cell line growth inhibition, 48 h
# DU-145 prostate = system: DU-145 prostate
# NCI/ADR-RES ovarian = system: NCI/ADR-RES ovarian
# SF-539 CNS = system: SF-539 CNS
# MDA-MB-231 breast = system: MDA-MB-231 breast
# SF-295 CNS = system: SF-295 CNS
# SNB-75 CNS = system: SNB-75 CNS
# SF-268 CNS = system: SF-268 CNS
# TK-10 renal = system: TK-10 renal
# M14 melanoma = system: M14 melanoma
# OVCAR-4 ovarian = system: OVCAR-4 ovarian
SMILES,TGI (DU-145 prostate) [µM],TGI (NCI/ADR-RES ovarian) [µM],TGI (SF-539 CNS) [µM],TGI (MDA-MB-231 breast) [µM],TGI (SF-295 CNS) [µM],TGI (SNB-75 CNS) [µM],TGI (SF-268 CNS) [µM],TGI (TK-10 renal) [µM],TGI (M14 melanoma) [µM],TGI (OVCAR-4 ovarian) [µM],GI50 (TK-10 renal) [µM],GI50 (DU-145 prostate) [µM],GI50 (NCI/ADR-RES ovarian) [µM],GI50 (SF-539 CNS) [nM],GI50 (MDA-MB-231 breast) [µM],GI50 (OVCAR-4 ovarian) [µM],GI50 (SF-295 CNS) [µM],GI50 (SF-268 CNS) [µM],GI50 (M14 melanoma) [µM]
OCC(O)C1OC2CC1Nc1ccccc1N2 (configuration not stated),> 100,> 100,> 100,> 100,> 100,> 100,> 100,> 100,,,,,,,,,,,
CC(=O)NC1C(OCc2ccccc2)OC(CO)C(O)C1OCC(=O)NC(C)C(=O)NC(CCC(=O)NCCCCCNc1c2ccccc2nc2cccc([N+](=O)[O-])c12)C(N)=O (configuration not stated),,,0.00116,< 0.0001,0.0265,0.00164,< 0.0001,1.54,< 0.0001,0.00615,< 0.0001,,,,,,,,
COC(=O)C(Cc1c[nH]c2ccccc12)NC(=O)C(Cc1c[nH]c2ccccc12)NC(=O)C(Cc1c[nH]c2ccccc12)NC(=O)C(Cc1c[nH]c2ccccc12)NC(=O)OC(C)(C)C (configuration not stated) (Boc-WWWW-OMe; configuration not given here),> 100,,,> 100,,> 100,> 100,> 100,> 100,> 100,,,,,,,,,
Cc1cccc2nc3cccc(C(=O)NCCC[N+](C)(CCCNC(=O)c4cccc5nc6cccc(C)c6nc45)Cc4c([N+](=O)[O-])ncn4C)c3nc12,> 1100,> 1100,9.07,> 1100,> 1100,> 1100,> 1100,> 1100,,> 1100,118,20.8,131,1590,> 1100,14.8,25,19.2,
C1#Cc2ccccc2OCCOc2ccccc2C#Cc2ccccc2OCCOc2ccccc21,> 100,> 100,,54.9,> 100,,46.3,> 100,> 100,30.6,,,,,,,,,
O=c1[nH]c(=O)n(COCc2ccccc2)c2ccc([N+](=O)[O-])cc12,> 100,> 100,> 100,> 100,> 100,> 100,,> 100,> 100,> 100,,,,,,,,,
Cc1ccc(S(=O)(=O)NC(=O)NCCC(=O)O)cc1,> 100,,> 100,> 100,> 100,> 100,> 100,> 100,> 100,> 100,,,,,,,,,
[N-]=[N+]=NC1CC(n2cc(COCC(F)(F)F)c(=O)[nH]c2=O)OC1CO (configuration not stated),,,> 100,,> 100,> 100,> 100,> 100,> 100,> 100,,,,,,,,,
Nc1ccccc1NC(=O)CCCCCCC(=O)Nc1ccc2c(c1)/C(=C/c1ccc[nH]1)C(=O)N2,> 100,> 100,> 100,> 100,> 100,,> 100,,> 100,,,7.06,> 100,1320,> 100,,> 100,6.64,69.2
CC(C)(C)OC(=O)NC(Cc1ccc(O)cn1)C(N)=O (configuration not stated),> 100,> 100,> 100,> 100,> 100,> 100,> 100,> 100,,> 100,,,,,,,,,
